Data taken from patent US8278313B2, “Macrocyclic spiro pyrimidine derivatives” (Abbott Laboratories, priority 2008, dated 2012).

Columns and labels:
histamine H4 receptor [1] = target: T1, histamine H4 receptor (Homo sapiens, UniProt Q9H3N8); assay: In vitro histamine H4 potency in FLIPR (Ca2+ flux, Fluo-4) in HEK-293 cells coexpressing Gαqi5; type: cell-based; details: Kb values for antagonists and inverse agonists, EC50 values for partial agonists; HEK-293 cells with Gαqi5, Fluo-4
T1 construct: expressed in transfected cells
From the text: There are many methods available to show the effectiveness of compounds as histamine H4 receptor ligands. Histamine H4 receptors from mammalian species have been cloned. Methods to clone, express, and assess the potency and functional activity of such cloned genes are well known to those skilled in the art of molecular biology. […] Before testing, cells are loaded with a Ca^+2 sensitive fluorescent dye, in this case Fluo-4. In the case of partial agonist or agonist ligands, addition of compound to the cells leads to the increase in intracellular Ca^+2, which is detected by FLIPR (Fluorescence Imaging Plate Reader; Molecular Devices, Sunnyvale, Calif.) technology. […] The fluorescence intensities measured before addition of the test compound are subtracted from the fluorescence intensities at later time points. Peak response values determined at each concentration of ligand are expressed as a percentage of the response obtained with the full agonist histamine. Concentration versus response data are analyzed to obtain compound potency as Kb values for antagonists and inverse agonists and as EC50 values for partial agonists.

histamine H4 receptor [2] = target: T1, histamine H4 receptor; assay: [3H]-histamine competition binding assay, membranes of HEK-293 cells transiently transfected with histamine H4 receptor; details: Ki by Cheng-Prusoff equation; HEK-293 membranes, 25° C., 1 hour, pH 7.4; read-out: Potency (nM), displacement of 3H-histamine
Experimental: In this assay, membranes were prepared from HEK-293 cells transiently transfected with the pCINeo expression vector harboring the histamine H4 receptor by homogenization of the cells on ice in TE buffer (50 mM Tris-HCl buffer, pH 7.4, containing 5 mM EDTA), 1 mM benzamidine, 2 μg/ml aprotinin, […] leupeptin, and 1 μg/ml pepstatin. The homogenate was centrifuged at 40,000 g for 20 minutes at 4° C. This step was repeated, and the resulting pellet was resuspended in TE buffer. Aliquots were frozen at −70° C. until needed. On the day of assay, membranes were thawed and diluted with TE buffer. Competition radioligand binding assays were performed with increasing concentrations of test compound in the presence of [^3H]-histamine incubated at 25° C. for 1 hour in a total volume of 0.5 mL of 50 mM Tris, 5 mM EDTA, pH 7.4. All binding reactions were terminated by filtration under vacuum onto polyethylenimine (0.3%) presoaked Unifilters (PerkinElmer Life Sciences) or Whatman GF/B filters (Whatman, Clifton, N.J.), followed by three brief washes with 4 ml of ice-cold TE buffer. Bound radiolabel was determined by liquid scintillation counting. For all of the radioligand competition binding assays, IC50 values and Hill slopes were determined by Hill transformation of the data, and Ki values were determined by the Cheng-Prusoff equation.

Potency (nM), in vitro histamine H4 potency in FLIPR (histamine H4 receptor [1])	Ki (histamine H4 receptor [2])	Structure (SMILES)
2.8 nM	1.1 nM	Nc1nc(N2CCNCC2)c2c(n1)C1(CCCC1)CCC2 [Example 2, 4′-(piperazin-1-yl)-6′,7′-dihydro-5′H-spiro[cyclopentane-1,8′-quinazolin]-2′-amine]
2.7 nM	4.6 nM	Nc1nc(N2CC[C@@H](N)C2)c2c(n1)C1(CCCC1)CCC2 [Example 4, (R)-4′-(3-aminopyrrolidin-1-yl)-6′,7′-dihydro-5′H-spiro[cyclopentane-1,8′-quinazolin]-2′-amine]
53 nM		Nc1nc(N2CC[C@H](N)C2)c2c(n1)C1(CCCC1)CCC2 [Example 5, (S)-4′-(3-aminopyrrolidin-1-yl)-6′,7′-dihydro-5′H-spiro[cyclopentane-1,8′-quinazolin]-2′-amine]
9.8 nM	2.8 nM	Nc1nc(N2CCCNCC2)c2c(n1)C1(CCCC1)CCC2 [Example 8, 4′-(1,4-diazepan-1-yl)-6′,7′-dihydro-5′H-spiro[cyclopentane-1,8′-quinazolin]-2′-amine]
22 nM		CN1CCC(Nc2nc(N)nc3c2CCCC32CCCC2)CC1 [Example 10, N4′-(1-methylpiperidin-4-yl)-6′,7′-dihydro-5′H-spiro[cyclopentane-1,8′-quinazoline]-2′,4′-diamine]
12624 nM		COC(=O)C1(N)CCN(c2nc(N)nc3c2CCCC32CCCC2)CC1 [Example 11, Methyl 4-amino-1-(2′-amino-6′,7′-dihydro-5′H-spiro[cyclopentane-1,8′-quinazoline]-4′-yl)piperidine-4-carboxylate]
68851 nM		Nc1nc(N2CC(N)C2)c2c(n1)C1(CCCC1)CCC2 [Example 13, 4′-(3-aminoazetidin-1-yl)-6′,7′-dihydro-5′H-spiro[cyclopentane-1,8′-quinazolin]-2′-amine]
20 nM		CN1CC[C@@H](Oc2nc(N)nc3c2CCCC32CCCC2)C1 [Example 15, (R)-4′-(1-methylpyrrolidin-3-yloxy)-6′,7′-dihydro-5′H-spiro[cyclopentane-1,8′-quinazolin]-2′-amine]
47 nM	18 nM	Nc1nc(N2CC[C@@H](N)C2)c2c(n1)C1(CCCCC1)CCCC2 [Example 17, (R)-4-(3-aminopyrrolidin-1-yl)-5,6,7,8-tetrahydrospiro[cyclohepta[d]pyrimidine-9,1′-cyclohexan]-2-amine]
99 nM		Nc1nc(N2C[C@H]3CCCN[C@H]3C2)c2c(n1)C1(CCCCC1)CCCC2 [Example 18, 4-((4aR,7aR)-tetrahydro-1H-pyrrolo[3,4-b]pyridin-6(2H,7H,7aH)-yl)-5,6,7,8-tetrahydrospiro[cyclohepta[d]pyrimidine-9,1′-cyclohexan]-2-amine]
26915 nM		Nc1nc(N2CCNCC2)c2c(n1)C1(CCCC2)Cc2ccccc2C1 [Example 19, 4-(piperazin-1-yl)-1′,3′,5,6,7,8-hexahydrospiro[cyclohepta[d]pyrimidine-9,2′-inden]-2-amine]

Continued, molecule first:

Structure (SMILES)	Potency (nM), in vitro histamine H4 potency in FLIPR (histamine H4 receptor [1])	Ki (histamine H4 receptor [2])
CN[C@@H]1CCN(c2nc(N)nc3c2CCCC32CCCC2)C1 [Example 1, (R)-4′-(3-(methylamino)pyrrolidin-1-yl)-6′,7′-dihydro-5′H-spiro[cyclopentane-1,8′-quinazolin]-2′-amine]	2.9 nM	2.6 nM
CNC1CN(c2nc(N)nc3c2CCCC32CCCC2)C1 [Example 3, 4′-(3-(methylamino)azetidin-1-yl)-6′,7′-dihydro-5′H-spiro[cyclopentane-1,8′-quinazolin]-2′-amine]	4.6 nM	1.4 nM
Nc1nc(N2CC[C@@H]3CNC[C@@H]32)c2c(n1)C1(CCCC1)CCC2 [Example 6, 4′-((3aR,6aR)-hexahydropyrrolo[3,4-b]pyrrol-1(2H)-yl)-6′,7′-dihydro-5′H-spiro[cyclopentane-1,8′-quinazolin]-2′-amine]	1097 nM	
Nc1nc(N2CC[C@H]3CNC[C@H]32)c2c(n1)C1(CCCC1)CCC2 [Example 7, 4′-((3aS,6aS)-hexahydropyrrolo[3,4-b]pyrrol-1(2H)-yl)-6′,7′-dihydro-5′H-spiro[cyclopentane-1,8′-quinazolin]-2′-amine]	1027 nM	
Nc1nc(N2C[C@H]3CCCN[C@H]3C2)c2c(n1)C1(CCCC1)CCC2 [Example 9, 4′-((4aR,7aR)-tetrahydro-1H-pyrrolo[3,4-b]pyridin-6(2H,7H,7aH)-yl)-6′,7′-dihydro-5′H-spiro[cyclopentane-1,8′-quinazolin]-2′-amine]	8.5 nM	3.4 nM
Nc1nc(N2CCC(N)(C(=O)O)CC2)c2c(n1)C1(CCCC1)CCC2 [Example 12, 4-amino-1-(2′-amino-6′,7′-dihydro-5′H-spiro[cyclopentane-1,8′-quinazoline]-4′-yl)piperidine-4-carboxylic Acid]	21251 nM	
CN(C)CCOc1nc(N)nc2c1CCCC21CCCC1 [Example 14, 4′-(2-(dimethylamino)ethoxy)-6′,7′-dihydro-5′H-spiro[cyclopentane-1,8′-quinazolin]-2′-amine]	7.8 nM	
Nc1nc(N2CCNCC2)c2c(n1)C1(CCCCC1)CCCC2 [Example 16, 4-(piperazin-1-yl)-5,6,7,8-tetrahydrospiro[cyclohepta[d]pyrimidine-9,1′-cyclohexan]-2-amine]	48 nM	9.3 nM
Nc1nc(N2CC[C@@H](N)C2)c2c(n1)C1(CCCC2)Cc2ccccc2C1 [Example 20, (R)-4-(3-aminopyrrolidin-1-yl)-1′,3′,5,6,7,8-hexahydrospiro[cyclohepta[d]pyrimidine-9,2′-inden]-2-amine]	499 nM	
